Experimental data from PubChem BioAssay AID330 (DTP/NCI, 2004).
Where “and” joins values, the source holds several entries; their conditions need not be identical. Identical values can stand only once. Toxic doses and inconclusive results are not listed. How the source made its calls: active means survival T/C of 150% or more; inactive means T/C below 125% in these data.

System: P388 leukemia ip, CD2F1 mice, survival T/C
Test: NCI In Vivo Anticancer Drug Screen. Data for tumor model P388 Leukemia (intraperitoneal) in CD2F1 (CDF1) mice
Conditions: endpoint: median survival time, higher = longer survival
In short: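 Mice carrying the transplanted tumor received test compound or vehicle. Survival was recorded in each group, and the value is the treated-group measurement divided by that of the vehicle-treated control group.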

[1] = dose: 50.0 mg/kg/injection, schedule: Q01DX005 (ip), vehicle: saline with Tween-80
[2] = dose: 100.0 mg/kg/injection, schedule: Q01DX005 (ip), vehicle: saline with Tween-80
[3] = dose: 200.0 mg/kg/injection, schedule: Q01DX005 (ip), vehicle: saline with Tween-80
[4] = dose: 100.0 mg/kg/injection, schedule: Q04DX003 (ip), vehicle: saline
[5] = dose: 200.0 mg/kg/injection, schedule: Q04DX003 (ip), vehicle: saline
[6] = dose: 50.0 mg/kg/injection, schedule: Q01DX005 (ip), vehicle: Klucel (hydroxypropylcellulose) (HPC)
[7] = dose: 100.0 mg/kg/injection, schedule: Q01DX005 (ip), vehicle: Klucel (hydroxypropylcellulose) (HPC)
[8] = dose: 200.0 mg/kg/injection, schedule: Q01DX005 (ip), vehicle: Klucel (hydroxypropylcellulose) (HPC)
[9] = dose: 100.0 mg/kg/injection, schedule: Q04DX002 (ip), vehicle: saline with Tween-80
[10] = dose: 50.0 mg/kg/injection, schedule: Q01DX009 (ip), vehicle: saline with Tween-80
[11] = dose: 60.0 mg/kg/injection, schedule: Q01DX005 (ip), vehicle: saline with Tween-80
[12] = dose: 120.0 mg/kg/injection, schedule: Q01DX005 (ip), vehicle: saline with Tween-80
[13] = dose: 240.0 mg/kg/injection, schedule: Q01DX005 (ip), vehicle: saline with Tween-80
[14] = dose: 60.0 mg/kg/injection, schedule: Q01DX005 (ip), vehicle: Klucel (hydroxypropylcellulose) (HPC)
[15] = dose: 120.0 mg/kg/injection, schedule: Q01DX005 (ip), vehicle: Klucel (hydroxypropylcellulose) (HPC)
[16] = dose: 240.0 mg/kg/injection, schedule: Q01DX005 (ip), vehicle: Klucel (hydroxypropylcellulose) (HPC)
[17] = dose: 100.0 mg/kg/injection, schedule: Q01DX009 (ip), vehicle: saline with Tween-80
[18] = dose: 200.0 mg/kg/injection, schedule: Q01DX009 (ip), vehicle: saline with Tween-80
[19] = dose: 25.0 mg/kg/injection, schedule: Q01DX009 (ip), vehicle: saline with Tween-80

Measured: T/C

CC(=O)Nc1nncs1
inactive: dose: 100.0 mg/kg/injection, schedule: Q04DX003 (ip), vehicle: saline sonified 109 % of control | dose: 200.0 mg/kg/injection, schedule: Q04DX003 (ip), vehicle: saline sonified 90 % of control | dose: 400.0 mg/kg/injection, schedule: Q04DX003 (ip), vehicle: saline sonified 118 % of control

CC1(C)CC(=O)C(=N/O)/C(=N\NC(N)=S)C1
inactive: [1] 102 % of control | [2] 103 % of control | [3] 110 % of control

CC[C@H]1CN2CCc3c([nH]c4ccccc34)[C@@H]2C[C@@H]1/C(=C\OC)C(=O)OC
inactive: [1] 108 % of control | [2] 108 % of control | [3] 108 % of control

[Co+3].[NH-]CC[NH-].[NH-]CC[NH-].[NH-]CC[SH2+].[O-][Cl+3]([O-])([O-])O
inactive: [4] 100 % of control | [5] 100 % of control | dose: 400.0 mg/kg/injection, schedule: Q04DX003 (ip), vehicle: saline 102 % of control | dose: 800.0 mg/kg/injection, schedule: Q04DX003 (ip), vehicle: saline 99 % of control

C#CCSc1nnnn1-c1ccc(Br)c(C)c1
inactive: [6] 101 % of control | [7] 92 % of control | [8] 101 % of control

N=C(N)c1ccc(/C=C/c2ccc(C(=N)N)cc2O)cc1
inactive: dose: 12.5 mg/kg/injection, schedule: Q01DX009 (ip), vehicle: water 111 % of control | dose: 22.0 mg/kg/injection, schedule: Q01DX009 (ip), vehicle: water 120 % of control | dose: 25.0 mg/kg/injection, schedule: Q01DX009 (ip), vehicle: water 120 % of control

COc1ccc2c(c1)CCc1cn[nH]c1-2
inactive: [6] 93 % of control | [7] 92 % of control | [8] 93 % of control

CSC(=S)n1nc(-c2ccccc2)c(N=Nc2cccc(Cl)c2)c1-c1ccccc1
inactive: [9] 107 % of control | dose: 200.0 mg/kg/injection, schedule: Q04DX002 (ip), vehicle: saline with Tween-80 104 % of control | dose: 400.0 mg/kg/injection, schedule: Q04DX002 (ip), vehicle: saline with Tween-80 119 % of control

OCc1c(-c2ccc(Cl)cc2)c(-c2ccc(Cl)cc2)c2n1CCC2
inactive: [6] 92 % of control | [7] 92 % of control | [8] 92 % of control

CCN(CC)CCCC(C)Nc1c2ccc(C)cc2nc2ccc(OC)cc12 (stereo not drawn)
inactive: dose: 12.5 mg/kg/injection, schedule: Q01DX009 (ip), vehicle: saline with Tween-80 103 % of control | [10] 112 % of control

COc1cc(C2C(C)=COc3cc4c(cc32)OCO4)cc(OC)c1OC (stereo not drawn)
inactive: [11] 93 % of control | [12] 100 % of control | [13] 93 % of control

O=c1[nH]c2cc(Cl)ccc2nc1/C=C(\O)c1ccc([N+](=O)[O-])cc1
inactive: [14] 101 % of control | [15] 96 % of control | [16] 89 % of control

Brc1cc2c(cc1C=NC1CCCCC1)OCO2
inactive: dose: 100.0 mg/kg/injection, schedule: Q01DX001 (ip), vehicle: Klucel (hydroxypropylcellulose) (HPC) 99 % of control | dose: 200.0 mg/kg/injection, schedule: Q01DX001 (ip), vehicle: Klucel (hydroxypropylcellulose) (HPC) 101 % of control | dose: 400.0 mg/kg/injection, schedule: Q01DX001 (ip), vehicle: Klucel (hydroxypropylcellulose) (HPC) 101 % of control

C=C1C(=O)O[C@@H]2C3=C(C)C(=O)C=C[C@]3(C)CC[C@@H]12
inactive: [9] 109 % of control

CCOc1c(N=Nc2cccc(Cl)c2)c(C)nn1C(=S)S
inactive: dose: 15.0 mg/kg/injection, schedule: Q01DX005 (ip), vehicle: Klucel + Tween-80 94 % of control | dose: 30.0 mg/kg/injection, schedule: Q01DX005 (ip), vehicle: Klucel + Tween-80 90 % of control

OCc1c(CO)c(-c2ccc(Cl)c(Cl)c2)n2c1CCC2
inactive: dose: 13.5 mg/kg/injection, schedule: Q01DX009 (ip), vehicle: saline with Tween-80 107 % of control | dose: 27.0 mg/kg/injection, schedule: Q01DX009 (ip), vehicle: saline with Tween-80 109 % of control | dose: 54.0 mg/kg/injection, schedule: Q01DX009 (ip), vehicle: saline with Tween-80 109 % of control | [17] 116 % of control and 118 % of control | [18] 116 % of control

CC(C)(CO)COC1OCN(C(C)(C)C)CC1(C)C (stereo not drawn)
inactive: [10] 100 % of control | [17] 110 % of control | [18] 112 % of control

C/C(=N\NC(=S)N1CCC(c2ccccc2)CC1)c1ccccn1
inactive: [4] 100 % of control | [5] 101 % of control

CCOC(=O)c1[nH]c(=O)c2cccnc2c1O
inactive: dose: 30.0 mg/kg/injection, schedule: Q01DX005 (ip), vehicle: Klucel (hydroxypropylcellulose) (HPC) 97 % of control | [14] 94 % of control and 98 % of control | [15] 106 % of control and 96 % of control | [16] 113 % of control

C[C@]12CCC(=O)C[C@@H]1CC[C@@H]1[C@@H]2CC[C@]2(C)[C@@H]3OCCC[C@H]3C[C@@H]12
inactive: [11] 91 % of control | [12] 89 % of control | [13] 90 % of control

O=C(CCN1CCCCC1)c1ccccc1
inactive: dose: 5.0 mg/kg/injection, schedule: Q01DX009 (ip), vehicle: saline 100 % of control | dose: 10.0 mg/kg/injection, schedule: Q01DX009 (ip), vehicle: saline 113 % of control | dose: 20.0 mg/kg/injection, schedule: Q01DX009 (ip), vehicle: saline 109 % of control | [10] 97 % of control

C=CCN1CCN(c2ccncc2S(=O)(=O)N2CCN(C)CC2)CC1
inactive: dose: 50.0 mg/kg/injection, schedule: Q01DX009 (ip), vehicle: saline 105 % of control | dose: 100.0 mg/kg/injection, schedule: Q01DX009 (ip), vehicle: saline 99 % of control | dose: 200.0 mg/kg/injection, schedule: Q01DX009 (ip), vehicle: saline 97 % of control

CC(=O)Nc1ccc(C)cc1C1SCCS1
inactive: [19] 90 % of control | [10] 105 % of control | [17] 97 % of control

CC1=C/C(=N/OS(=O)(=O)c2ccc(C)cc2)CC(C)(C)C1
inactive: [1] 101 % of control | [2] 92 % of control | [3] 117 % of control

CC(=O)Oc1ccc(CC(=O)O)cc1
inactive: [19] 107 % of control | [10] 103 % of control | [17] 103 % of control | [18] 107 % of control

C=C(CCCC)[Se]c1ccccc1
inactive: [19] 103 % of control and 107 % of control | [10] 107 % of control and 95 % of control | [17] 101 % of control and 117 % of control

Cc1nc2ccccc2nc1N
inactive: [11] 94 % of control | [12] 98 % of control | [13] 98 % of control

Cc1ccc(S(=O)(=O)N/N=C/c2c(-c3ccc(-c4ccccc4)cc3)nc3n2CCS3)cc1
inactive: dose: 100.0 mg/kg/injection, schedule: Q01DX001 (ip), vehicle: saline with Tween-80 100 % of control | dose: 200.0 mg/kg/injection, schedule: Q01DX001 (ip), vehicle: saline with Tween-80 102 % of control | dose: 400.0 mg/kg/injection, schedule: Q01DX001 (ip), vehicle: saline with Tween-80 90 % of control

CCOC(=O)c1ccnc2ccc3ccccc3c12
inactive: [6] 105 % of control | [7] 102 % of control | [8] 96 % of control

CCOn1nnc2c([N+](=O)[O-])cccc21
inactive: [1] 96 % of control | [2] 92 % of control

CC(C)c1cc(C(F)(F)F)nc(NNc2nc(C(C)C)cc(C(F)(F)F)n2)n1
inactive: [10] 104 % of control | [17] 104 % of control | [18] 92 % of control
